Test results reported in patent US6514732B1, “Process for preparing baccatin” (Indena S.p.A., priority 1998, dated 2003).
“Also recorded” adds a separate entry of the source.

Key:
Format in all cases: biochemical, Taxus chinensis
acetyl transferase [1] = assay: KM value determination for 10-deacetyltaxuyunnanin C (Lineweaver-Burk); conditions: phenylsepharose eluate, 225-fold enriched; 30 min at 35° C., pH 8.5
Description: To gain information about the affinity of the acetyl transferase to 10-deacetyltaxuyunnanin C, the KM value of the phenylsepharose eluate was determined.
100 μl of acetyl-transferase (0.25 pcat, 40 ng of protein, 225-fold enriched)
30 μl of acetyl coenzyme A (5 nmol, additionally containing 0.02 μCi[2-^14C]acetylCoA)
30 min at 35° C.; evaluation of the radioactivity, which had been extracted using tert-butyl methyl ether, using a scintillation counter.
By plotting the measured results in a doubly reciprocal manner according to Lineweaver and Burk, the KM value for 10-deacetyltaxuyunnanin C was determined graphically to be 23 μM.

[2] = tested on: acetyl transferase (acetyl CoA 10-hydroxytaxane-O-acetyl transferase); assay: Substrate specificity of the purified acetyl transferase (conversion of taxane substrates with [2-14C]acetyl CoA); conditions: for Conversion, based on the conversion of 10-deacetyltaxuyunnanin C / pkat (enzyme activity with the substrate): Enzyme: Phenylsepharose eluate (225-fold purified); for acetylation / acceptance as substrate by the enzyme (in words): purified acetyl transferase, acetyl donor acetyl CoA
Description: A sufficient amount of the enzyme solution to be tested was pipetted into 50 μl of tris buffer (0.8 M, pH 8.5) in an Eppendorf cap. 30 μl of purified acetyl CoA (5 nmol of unlabelled and 0.02 μCi-[2-^14C]acetyl coenzyme A) and 15 nmol of a 3 mM stock solution of 10-deacetyltaxuyunnanin C dissolved in DMSO were then added (for the control only the corresponding amount of DMSO instead of this taxane). The mixture was incubated at 35° C. for 30 minutes and then acidified using 20 μl of 12% H2SO4, the taxuyunnanin C formed was extracted using 600 μl of tert-butyl methyl ether (10 min. in an overhead shaker) and the mixture was then centrifuged (4 min at 14,000 rpm in an Eppendorf centrifuge). The unreacted [2-^14C]acetyl CoA which was still present remained in the aqueous phase. 500 μl of the organic phase were evaporated to dryness in a stream of air, which simultaneously removed any [2-^14C]acetic acid present which, owing to the earlier acidification, was present as the acid and was therefore volatile. Using a scintillation counter (Multipurpose Scintillation Counter LS 6500, from Beckmann) or a thin-layer radioscanner (Automatic TLC Linear Analyser, from Berthold), the type and the amount of the product formed were determined. The former apparatus was used to determine the conversion and thus the activity of the enzyme using the cpm values counted. With the aid of thin-layer chromatography (TLC) (mobile phase: chloroform:acetonitrile 7:3) and the subsequent evaluation using a radioscanner, it was possible to check whether the radioactivity measured using the scintillation counter did indeed correspond to a peak in the region of the Rf value of the expected product.
To check the substrate specificity of the purified acetyl transferase, various compounds having a taxane skeleton were used as substrate.
10-DAB is converted with a rate of conversion of 85%, compared to 10-deacetyltaxuyunnanin C to baccatin III.
Conversion of Various Substrates, Based on the Conversion of 10-deacetyltaxuyunnanin C
Enzyme: Phenylsepharose eluate (225-fold purified)

acetyl transferase [3] = assay: KM value determination for acetyl coenzyme A (Lineweaver-Burk); conditions: phenylsepharose eluate, 225-fold enriched; 30 min at 35° C., pH 8.5
Description: The affinity of acetyl transferase to acetyl coenzyme A can be described by the KM value, which was determined using the phenylsepharose eluate.
100 μl of acetyl transferase (0.25 pcat, 40 ng of protein, 225-fold enriched)
5 μl of 3 mM 10-deacetyltaxuyunnanin C (15 nmol)
30 min at 35° C. Evaluation was subsequently carried out by extraction with tert-butyl methyl ether and the use of a scintillation counter. By plotting the measured values in a doubly reciprocal manner according to Lineweaver and Burk, the KM value for acetyl coenzyme A was determined at 61 μM.

Row | Compound | Conversion, based on the conversion of 10-deacetyltaxuyunnanin C [2] [%] | pkat (enzyme activity with the substrate) [2] [pkat] | also measured
1 | C=C1[C@@H](OC(C)=O)CC[C@@]2(C)C[C@H](O)C3=C(C)C[C@H](OC(C)=O)[C@@H]([C@@H](OC(C)=O)[C@H]12)C3(C)C [10-Desacetyltaxuyunnanin C, 10-deacetyltaxuyunnanin C] | 100 | 1.12 | Km (acetyl transferase [1]): 23 µM
2 | CC(=O)OC12COC1CC(O)C1(C)C(=O)C(O)C3=C(C)C(O)CC(O)(C(OC(=O)c4ccccc4)C21)C3(C)C (stereo not drawn) [10-epi-10-DAB III] | 0 | 0 | 
3 | CC(=O)O[C@@]12CO[C@@H]1C[C@H](O)[C@@]1(C)C(=O)[C@H](O)C3=C(C)[C@@H](OC(=O)[C@H](O)[C@@H](NC(=O)c4ccccc4)c4ccccc4)C[C@@](O)([C@@H](OC(=O)c4ccccc4)[C@H]21)C3(C)C [10-deacetyltaxol] |  |  | acetylation / acceptance as substrate by the enzyme (in words) [2]: not acetylated; also recorded: acetylation does not take place
4 | 2,10,14-deacetyltaxuyunnanin C [2,10,14-Desacetyltaxuyunnanin C] | 81 | 0.91 | 
5 | CC(=O)OC12COC1CC(O)C1(C)C(=O)C(O)C3=C(C)C(O)C(O)C(O)(C(OC(=O)c4ccccc4)C21)C3(C)C (centres unmarked) [14-Hydroxy-10-DAB III, 14-hydroxy-10-deacetylbaccatin III] | 97 | 1.09 | 
6 | CC[Si](CC)(CC)O[C@H]1C[C@H]2OC[C@@]2(OC(C)=O)[C@H]2[C@H](OC(=O)c3ccccc3)[C@]3(O)C[C@H](O)C(C)=C([C@@H](O)C(=O)[C@]12C)C3(C)C [7-TES-10-DAB III] | 0 | 0 | acetylation / acceptance as substrate by the enzyme (in words) [2]: not recognized as substrates
7 | C=C1C(O)CCC2(C)CC(O)C3=C(C)CC(O)C(C(OC(C)=O)C12)C3(C)C (centres unmarked) [5,10,14-Desacetyltaxuyunnanin C, 5,10,14-deacetyltaxuyunnanin C] | 88 | 0.99 | 
8 | C=C1C(O)CCC2(C)CC(O)C3=C(C)CC(O)C(C(O)C12)C3(C)C (centres unmarked) [2,5,10,14-Desacetyltaxuyunnanin C, 2,5,10,14-deacetyltaxuyunnanin C] | 53 | 0.59 | 
9 | CC=C(C)C(=O)NC(c1ccccc1)C(O)C(=O)OC1CC2(O)C(OC(=O)c3ccccc3)C3C4(OC(C)=O)COC4CC(O)C3(C)C(=O)C(O)C(=C1C)C2(C)C (centres unmarked) [10-deacetylcephalomannin] |  |  | acetylation / acceptance as substrate by the enzyme (in words) [2]: not acetylated; also recorded: acetylation does not take place
10 | CC(=O)SCCNC(=O)CCNC(=O)[C@H](O)C(C)(C)COP(=O)(O)OP(=O)(O)OC[C@H]1O[C@@H](n2cnc3c(N)ncnc32)[C@H](O)[C@@H]1OP(=O)(O)O [acetyl coenzyme A] |  |  | Km (acetyl transferase [3]): 61 µM
11 | 10,14-deacetyltaxuyunnanin C [10,14-Desacetyltaxuyunnanin C] | 102 | 1.14 | 
12 | CC(=O)O[C@@]12CO[C@@H]1C[C@H](O)[C@@]1(C)C(=O)[C@H](O)C3=C(C)[C@@H](O)C[C@@](O)([C@@H](OC(=O)c4ccccc4)[C@H]21)C3(C)C [10-Desacetylbaccatin III, 10-deacetylbaccatin III] | 80 | 0.9 | Conversion, based on the conversion of 10-deacetyltaxuyunnanin C ([2]; listed as 10-DAB): 85%
13 | CC(=O)O[C@@]12CO[C@@H]1C[C@H](OC(=O)OC(C)(C)C)[C@@]1(C)C(=O)[C@H](O)C3=C(C)[C@@H](O)C[C@@](O)([C@@H](OC(=O)c4ccccc4)[C@H]21)C3(C)C [7-BOC-10-DAB III] | 2 | 2 | acetylation / acceptance as substrate by the enzyme (in words) [2]: not recognized as substrates
14 | CC(=O)O[C@@]12CO[C@@H]1C[C@H](O)[C@@]1(CO)C(=O)[C@H](O)C3=C(C)[C@@H](O)C[C@@](O)([C@@H](OC(=O)c4ccccc4)[C@H]21)C3(C)C [19-Hydroxy-10-DAB III, 19-hydroxy-10-DAB III] | 38 | 0.43 | 
